Laboratory results published in ChEMBL document CHEMBL5226286, “The application of isatin-based multicomponent-reactions in the quest for new bioactive and druglike molecules” (Eur J Med Chem, 2021).
In brackets after ≈: the same amount, converted by molar mass. Activity calls are given as the source filed them. No cut-off for these calls is given here.

How the values were obtained:
[1] = system: Mycobacterium tuberculosis; assay: Antimycobacterial activity against active stage of Mycobacterium tuberculosis H37Ra ATCC 25177 assessed as minimum inhibitory concentration by XTT assay; format: functional
[2] = system: Mycobacterium tuberculosis; assay: Antimycobacterial activity against dormant stage of Mycobacterium tuberculosis H37Ra ATCC 25177 assessed as minimum inhibitory concentration by XTT assay; format: functional
Escherichia coli [3] = assay: Antibacterial activity against Escherichia coli NCIM 2688 measured after 8 hrs; format: functional
Pseudomonas aeruginosa [4] = assay: Antibacterial activity against Pseudomonas aeruginosa NCIM […] measured after 8 hrs; format: functional
Bacillus subtilis [5] = assay: Antibacterial activity against Bacillus subtilis NCIM 2079 measured after 12 hrs; format: functional
Staphylococcus aureus [6] = assay: Antibacterial activity against Staphylococcus aureus NCIM 2010 measured after 12 hrs; format: functional
HepG2 = assay: cells; format: functional, cell-based; conditions: Homo sapiens
Description: Antiproliferative activity against human HepG2 cells

Aspergillus niger = assay: Antifungal activity against Aspergillus niger; format: functional
Aspergillus flavus = assay: Antifungal activity against Aspergillus flavus; format: functional
Staphylococcus aureus [7] = assay: Antibacterial activity against Staphylococcus aureus by disc diffusion method; format: functional
Bacillus subtilis [8] = assay: Antibacterial activity against Bacillus subtilis by disc diffusion method; format: functional
Escherichia coli [9] = assay: Antibacterial activity against Escherichia coli by disc diffusion method; format: functional
Pseudomonas aeruginosa [10] = assay: Antibacterial activity against Pseudomonas aeruginosa by disc diffusion method; format: functional
[11] = Antioxidant activity assessed as DPPH radical scavenging activity at 1 mg/ml relative to control; format: functional
MCF7 = assay: Cytotoxicity against human MCF7 cells; format: functional, cell-based
Streptococcus pneumoniae = assay: Antibacterial activity against Streptococcus pneumoniae incubated for 24 to 48 hrs by agar diffusion well method; format: functional; conditions: time 24-48 hrs
Bacillus subtilis [12] = assay: Antibacterial activity against Bacillus subtilis incubated for 24 to 48 hrs by agar diffusion well method; format: functional; conditions: time 24-48 hrs
Pseudomonas aeruginosa [13] = assay: Antibacterial activity against Pseudomonas aeruginosa incubated for 24 to 48 hrs by agar diffusion well method; format: functional; conditions: time 24-48 hrs
Escherichia coli [14] = assay: Antibacterial activity against Escherichia coli incubated for 24 to 48 hrs by agar diffusion well method; format: functional; conditions: time 24-48 hrs
Aspergillus fumigatus = assay: Antifungal activity against Aspergillus fumigatus RCMB 02568; format: functional
[15] = system: Syncephalastrum racemosum; assay: Antifungal activity against Syncephalastrum racemosum RCMB 05922; format: functional
Geotrichum candidum = assay: Antifungal activity against Geotrichum candidum RCMB 05097; format: functional
Candida albicans = assay: Antifungal activity against Candida albicans RCMB 05036; format: functional
A549 = assay: Anticancer activity against human A549 cells by MTT assay; format: functional, cell-based
MDA-MB-231 = assay: cells; format: functional, cell-based; conditions: Homo sapiens
Description: Antiproliferative activity against human MDA-MB-231 cells

HeLa = assay: Antiproliferative activity against human HeLa cells; format: functional, cell-based

Compound: CC1(C)CC(=O)C2=C(C1)OC(N)=C(C#N)C21C(=O)N(Cc2cn(Cc3ccc(Cl)cc3)nn2)c2ccc(Cl)cc21 (stereo unspecified)
- MIC [1]: > 50 µg/mL
- MIC [2]: 8.07 µg/mL (≈ 14 µM)
- MIC90 (Escherichia coli [3]): 1.78 µg/mL (≈ 3.09 µM)
- MIC90 (Pseudomonas aeruginosa [4]): 5.29 µg/mL (≈ 9.19 µM)
- MIC90 (Bacillus subtilis [5]): 1.14 µg/mL (≈ 1.98 µM)
- MIC90 (Staphylococcus aureus [6]): 3.55 µg/mL (≈ 6.17 µM)

Compound: O=C1C(=O)c2ccccc2C2=C1C1(C(=O)Nc3ccc(F)cc31)N1NN=NC1=N2 (stereo unspecified)
- IC50 (HepG2): 2.9 µM

Compound: Cc1ccc(Cn2cc(CN3C(=O)C4(C(C#N)=C(N)Oc5cc(C)oc(=O)c54)c4ccccc43)nn2)cc1 (stereo unspecified)
- MIC [1]: 14 µg/mL (≈ 27.6 µM)
- MIC [2]: 7.3 µg/mL (≈ 14.4 µM)
- MIC90 (Escherichia coli [3]): 1.97 µg/mL (≈ 3.89 µM)
- MIC90 (Pseudomonas aeruginosa [4]): 3.08 µg/mL (≈ 6.08 µM)
- MIC90 (Bacillus subtilis [5]): 2.85 µg/mL (≈ 5.63 µM)
- MIC90 (Staphylococcus aureus [6]): 4.27 µg/mL (≈ 8.43 µM)

Compound: CC(C)CC1NC2(C(=O)Nc3ccccc32)C(C(=O)c2ccc(F)cc2)C1c1ccccc1 (stereo unspecified)
- MIC (Aspergillus niger): 20 µg/mL (≈ 45.2 µM)
- MIC (Aspergillus flavus): 20 µg/mL (≈ 45.2 µM)

Compound: CC1(C)CC(=O)C2=C(C1)N(c1ccccc1F)C(=O)C21C2=C(Nc3ccccc31)C(=O)CC(C)(C)C2 (stereo unspecified)
- MIC (Staphylococcus aureus [7]): inactive
- MIC (Bacillus subtilis [8]): 75 µg/mL (≈ 155 µM)
- MIC (Escherichia coli [9]): 37.5 µg/mL (≈ 77.4 µM)
- MIC (Pseudomonas aeruginosa [10]): 50 µg/mL (≈ 103 µM)

Compound: O=C(c1ccc(F)cc1)C1C(c2ccc(Cl)cc2)CNC12C(=O)Nc1ccccc12 (stereo unspecified)
- Activity [11]: 88.7%

Compound: O=C(c1ccc(F)cc1)C1C(c2ccc(Br)cc2)C(CO)NC12C(=O)Nc1ccccc12 (stereo unspecified)
- MIC (Aspergillus niger): 20 µg/mL (≈ 40.4 µM)
- MIC (Aspergillus flavus): 30 µg/mL (≈ 60.6 µM)
- Activity [11]: 87.4%

Compound: Cc1coc2c1C(=O)C(=O)c1c-2ccc2c1CCCC2(C)C [TANSHINONE IIA]
- IC50 (HepG2): 23.9 µM

Compound: CC(C)CC1NC2(C(=O)Nc3ccccc32)C(C(=O)c2ccc(F)cc2)C1c1ccc(Br)cc1 (stereo unspecified)
- MIC (Aspergillus niger): 30 µg/mL (≈ 57.5 µM)
- MIC (Aspergillus flavus): 20 µg/mL (≈ 38.4 µM)

Compound: CCOC(=O)C1=C(C(=O)OCC)C2(NC1(C(=O)OCC)C(=O)OCC)C(=O)Nc1ccccc12 (stereo unspecified)
- IC50 (MCF7): 28 µM

Compound: NC[C@H]1O[C@H](O[C@H]2[C@H](O)[C@@H](O[C@H]3O[C@H](CO)[C@@H](O)[C@H](N)[C@H]3O)[C@H](N)C[C@@H]2N)[C@H](O)[C@@H](O)[C@@H]1O [KANAMYCIN]
- MIC90 (Escherichia coli [3]): 1.62 µg/mL (≈ 3.34 µM)
- MIC90 (Pseudomonas aeruginosa [4]): 0.49 µg/mL (≈ 1.01 µM)
- MIC90 (Bacillus subtilis [5]): 1.35 µg/mL (≈ 2.79 µM)
- MIC90 (Staphylococcus aureus [6]): > 30 µg/mL

Compound: O=C(c1ccc(F)cc1)C1C(c2ccc(Cl)cc2)C(CO)NC12C(=O)Nc1ccccc12 (stereo unspecified)
- MIC (Aspergillus niger): 20 µg/mL (≈ 44.4 µM)
- MIC (Aspergillus flavus): 20 µg/mL (≈ 44.4 µM)
- Activity [11]: 88.1%

Compound: CCOC(=O)N1C/C(=C\c2ccc([N+](=O)[O-])cc2)C(=O)[C@@]2(C1)[C@H](c1ccc([N+](=O)[O-])cc1)[C@H]1CCCN1[C@]21C(=O)Nc2ccccc21
- MIC (Streptococcus pneumoniae): 1.95 µg/mL (≈ 3.06 µM)
- MIC (Bacillus subtilis [12]): 0.06 µg/mL (≈ 0.0941 µM)
- MIC (Pseudomonas aeruginosa [13]): inactive
- MIC (Escherichia coli [14]): 15.6 µg/mL (≈ 24.5 µM)
- MIC (Aspergillus fumigatus): 1.95 µg/mL (≈ 3.06 µM)
- MIC [15]: 0.49 µg/mL (≈ 0.768 µM)
- MIC (Geotrichum candidum): 0.12 µg/mL (≈ 0.188 µM)
- MIC (Candida albicans): inactive

Compound: CC1(C)CC(=O)C2=C(C1)N(c1c(Br)cc(Br)cc1Br)C(=O)C21C2=C(Nc3ccccc31)C(=O)CC(C)(C)C2 (stereo unspecified)
- MIC (Staphylococcus aureus [7]): 100 µg/mL (≈ 142 µM)
- MIC (Bacillus subtilis [8]): 62.5 µg/mL (≈ 88.9 µM)
- MIC (Escherichia coli [9]): 37.5 µg/mL (≈ 53.3 µM)
- MIC (Pseudomonas aeruginosa [10]): 50 µg/mL (≈ 71.1 µM)

Compound: Cc1ccc(Cn2cc(CN3C(=O)C4(C(C#N)=C(N)OC5=C4C(=O)CC(C)(C)C5)c4cc(Br)ccc43)nn2)cc1 (stereo unspecified)
- MIC [1]: 29.2 µg/mL (≈ 48.8 µM)
- MIC [2]: 8.89 µg/mL (≈ 14.8 µM)

Compound: CCOC(=O)N1C/C(=C\c2ccc(Cl)cc2)C(=O)[C@@]2(C1)[C@H](c1ccc(Cl)cc1)CN(C)[C@]21C(=O)Nc2ccccc21
- MIC (Streptococcus pneumoniae): 0.12 µg/mL (≈ 0.203 µM)
- MIC (Bacillus subtilis [12]): 0.015 µg/mL (≈ 0.0254 µM)
- MIC (Pseudomonas aeruginosa [13]): 15.6 µg/mL (≈ 26.5 µM)
- MIC (Escherichia coli [14]): 1.95 µg/mL (≈ 3.3 µM)
- MIC (Aspergillus fumigatus): 0.015 µg/mL (≈ 0.0254 µM)
- MIC [15]: 1.95 µg/mL (≈ 3.3 µM)
- MIC (Geotrichum candidum): 0.015 µg/mL (≈ 0.0254 µM)
- MIC (Candida albicans): 0.06 µg/mL (≈ 0.102 µM)

Compound: C#CCN1C(=O)[C@]2(c3ccccc31)N(C)C[C@@](C#N)(C(=O)c1c[nH]c3ccccc13)[C@@]21C(=O)Nc2ccccc21
- IC50 (A549): 50 µM

Compound: CC(C)CC1NC2(C(=O)Nc3ccccc32)C(C(=O)c2ccc(F)cc2)C1c1ccc(Cl)cc1 (stereo unspecified)
- MIC (Aspergillus niger): 20 µg/mL (≈ 41.9 µM)
- MIC (Aspergillus flavus): 20 µg/mL (≈ 41.9 µM)

Compound: CC1(C)CC(=O)C2=C(C1)N(c1ccccn1)C(=O)C21C2=C(Nc3ccccc31)C(=O)CC(C)(C)C2 (stereo unspecified)
- MIC (Staphylococcus aureus [7]): 125 µg/mL (≈ 267 µM)
- MIC (Bacillus subtilis [8]): 50 µg/mL (≈ 107 µM)
- MIC (Escherichia coli [9]): 62 µg/mL (≈ 133 µM)
- MIC (Pseudomonas aeruginosa [10]): inactive

Compound: Cc1ccc(Cn2cc(CN3C(=O)C4(C(C#N)=C(N)Oc5cc(C)oc(=O)c54)c4cc(Cl)ccc43)nn2)cc1 (stereo unspecified)
- MIC [1]: > 50 µg/mL
- MIC [2]: 11.6 µg/mL (≈ 21.4 µM)
- MIC90 (Escherichia coli [3]): 2.65 µg/mL (≈ 4.9 µM)
- MIC90 (Pseudomonas aeruginosa [4]): 4.88 µg/mL (≈ 9.02 µM)
- MIC90 (Bacillus subtilis [5]): 7.19 µg/mL (≈ 13.3 µM)
- MIC90 (Staphylococcus aureus [6]): 2.41 µg/mL (≈ 4.45 µM)

Compound: N#CC1=C(N)Oc2c(ccc3[nH]c4ccccc4c23)C12C(=O)N(Cc1cn(Cc3ccc([N+](=O)[O-])cc3)nn1)c1ccccc12 (stereo unspecified)
- IC50 (MDA-MB-231): 51.2 µM
- IC50 (HeLa): 6.3 µM
